Experimental data: paper PMC7016953 (Cells, 2020)

Columns and labels:
mTRPC4ß-YFP = test system: T1, mTRPC4ß-YFP; test: Selectivity profiling, fluo-4 [Ca2+]i response, TRPC4; format: cell-based, mouse; settings: 100 µM
T1 construct: expressed in transfected cells
Experimental: (§1) Human embryonic kidney 293 (HEK293) cells were stably transfected with expression plasmids that encode hTRPC3-YFP, hTRPC6-YFP, hTRPC7-YFP, mTRPC4ß-YFP, rTRPV1-CFP, rTRPV2-YFP, rTRPV3-YFP, mTRPV4-YFP, or hTRPM2 as previously described. Cell lines were cultured in Earle’s minimum essential medium (MEM; Sigma, Munich, Germany), supplemented with 10% fetal calf serum (Gibco Thermo Fisher Scientific, Darmstadt, Germany), 2 mM L-glutamine, and required concentrations of geneticin in a range of 0.4–1 mg/mL. A HEK293mTRPC5-YFP cell line was maintained and induced as described before. […] For electrophysiological and single cell [Ca^2+]i imaging experiments, PC12 cells were plated onto 25 mm poly-L-lysine-coated glass coverslips and measured 24–48 h after seeding. […]
(§2) The primary compound screen and the generation of concentration response curves in HEK293 cells or in PC12 cells were performed by using a custom-made fluorescence plate imager built into a robotic liquid handling station equipped with a 96-tip multichannel head (Freedom Evo 150, Tecan, Männedorf, Switzerland) as described previously. […] Plates were mounted on the imager, and fluorescence signals were recorded with a cooled Zyla 5.5 camera (Andor, Belfast, UK) through a 515 nm long pass filter. […] When inhibitory potencies were evaluated, a second pipetting step with the respective reference agonist was performed. […]

mTRPC5-YFP = test system: T2, mTRPC5-YFP; test: Selectivity profiling, fluo-4 [Ca2+]i response, TRPC5; format: cell-based, mouse; settings: 100 µM
T2 construct: expressed in transfected cells
Experimental: as §1, §2

TRPM8 = test system: T3, TRPM8; test: Selectivity profiling, fluo-4 [Ca2+]i response, TRPM8; format: cell-based; settings: 100 µM
T3 construct: expressed in transfected cells
Experimental: The primary compound screen and the generation of concentration response curves in HEK293 cells or in PC12 cells were performed by using a custom-made fluorescence plate imager built into a robotic liquid handling station equipped with a 96-tip multichannel head (Freedom Evo 150, Tecan, Männedorf, Switzerland) as described previously. To this end, trypsinized cell suspensions were loaded with 4 µM fluo-4/AM (Invitrogen, Thermo Fisher Scientific, Waltham, MA, U.S.A.) in cell culture medium for 30 min at 37 °C. After brief centrifugation, cells were resuspended in HBS and dispensed into black pigmented, clear-bottom 384-well plates (Greiner µClear, Frickenhausen, Germany). Plates were mounted on the imager, and fluorescence signals were recorded with a cooled Zyla 5.5 camera (Andor, Belfast, UK) through a 515 nm long pass filter. The image acquisition was controlled by the µManager software (http://micro-manager.org), and excitation with a LED array (470 nm) was synchronized by the camera trigger output. […] When inhibitory potencies were evaluated, a second pipetting step with the respective reference agonist was performed. Fluorescence intensities were calculated from image stacks for each well with ImageJ (National Institutes of Health, Bethesda, MD, U.S.A.), corrected for background signals, and normalized to the initial intensities (F/F0). […]

mTRPV4-YFP = test system: T4, mTRPV4-YFP; test: Selectivity profiling, fluo-4 [Ca2+]i response, TRPV4; format: cell-based, mouse; settings: 100 µM
T4 construct: expressed in transfected cells
Experimental: as §1, §2

TRPC6 = test system: T5, TRPC6; test: Whole-cell patch-clamp recordings in HEK TRPC6-YFP cells; format: cell-based, human; settings: 100 µM artemisinin
T5 construct: expressed in transfected cells
Experimental: The recordings of TRPC3, TRPC6, or TRPC7 membrane currents in HEK293 or PC12 cells were realized by using a Multiclamp 700B amplifier with a Digidata 1440A digitizer controlled by the PClamp 10 software (all Molecular Devices, Sunnyvale, CA, U.S.A.). Recordings were obtained at room temperature either in the whole-cell or in an outside-out configuration as indicated. Cells were seeded as described above, but at lower density, mounted in a chamber (Warner Instruments, Hamden, CT; U.S.A.), placed onto the stage of an inverted microscope, and perfused with required solution. The standard extracellular solution contained 140 mM NaCl, 5 mM CsCl, 2 mM MgCl2, 1 mM CaCl2, 10 mM HEPES, and 0.035% BSA adjusted to pH 7.4 with NaOH. The composition of standard intracellular solution was 140 mM CsCl, 1 mM MgCl2, 5 mM EGTA, and 10 mM HEPES adjusted to pH 7.25 with CsOH; the osmolarity was 295 mOsm l^−1. In outside-out measurements, the pipette solution contained 5 mM EGTA and 1.1 mM CaCl2 to achieve a calculated free Ca^2+ concentration of 100 nM.
Patch pipettes were pulled from borosilicate glass capillaries BG150F-8P (Science Products, Hofheim, Germany) with a PIP6 pipette puller (HEKA Elektronik, Lambrecht, Germany). […] In all whole-cell measurements, the series resistance was lower than 13 MΩ, and compensated by 70%. […]

C[C@@H]1CC[C@H]2[C@@H](C)C(=O)O[C@@H]3O[C@@]4(C)CC[C@@H]1[C@]32OO4 [artemisinin]
[Ca2+]i response, TRPC4 (mTRPC4ß-YFP): none of the cell lines responded
[Ca2+]i response, TRPC5 (mTRPC5-YFP): none of the cell lines responded
[Ca2+]i response, TRPM8 (TRPM8): none of the cell lines responded
[Ca2+]i response, TRPV4 (mTRPV4-YFP): none of the cell lines responded
ionic currents in TRPC6-expressing HEK cells (TRPC6): remained unaffected
